Measurements from patent EP0476120B1, “PROCESS FOR PREPARING EQUIMOLAR SALTS OF ASPARTIC ACID AND MAGNESIUM, MAGNESIUM ASPARTATE SALT OBTAINED BY SAID PROCESS AND ITS APPLICATIONS” (LA[…] SPINDLER, priority 1990, dated 1991).
Values joined by “and” are separate entries in the source; they are usually repeats but may differ in a detail not shown here. Equal entries are not always repeated. Where two headings read alike, the source gives them in different places.

Tests used:
[1] = system: singes cynomolggus (Macaca fascicularis); details: monkey
From the text: L'étude a été réalisée chez sept singes cynomolggus (Macaca fascicularis), de sexe mâle et femelle, pesant entre 2 et 5 kg.
Un mois avant le début de l'étude, sous anesthésie générale (kétamine + xylazine) huit électrodes (boules d'argent) ont été implantées dans la table osseuse, au niveau des aires frontale, centrale, pariétale et occipitale droites et gauche. L'électrocorticogramme a été enregistré sur un électroencéphalographe REEGA mini-huit (Alvar Electronic) en dérivations monopolaires par rapport à une référence commune.
Les enregistrements ont été réalisés sur des animaux habitués au siège à contention, en position assise, dans une pièce calme mais non insonorisée, en ambiance lumineuse tamisée.
Les huit dérivations EEG ont été analysées simultanément par un Neuromapper 1620 (Neuroscience) qui extrait du signal les transformées de Fourier ("Fast Fourier Transform" : FFT). En fait, 90 échantillons de 2 secondes, soit 3 minutes de tracé exempt d'artefact, ont été analysés. Les données recueillies correspondent à l'amplitude (»V) de chacune des 5 bandes de fréquence EEG classiques selon les bornes suivantes : delta de 0 à 4 Hz ; thêta de 7 à 8 Hz ; alpha de 8 à 13 Hz, bêta₁ de 13 à 20 Hz ; bêta₂ de 20 à 30 Hz.
Pour chacune de ces bandes ont ensuite été calculées : • Les puissances absolues en »V² • les puissances relatives (%), c'est-à-dire la puissance de chacune des bandes de fréquence rapportée à la puissance totale du spectre (power) • la "SEF 95 % (Spectral Edge Frequency 95 %) qui est la fréquence en deçà de laquelle se situent 95 % de la puissance totale du spectre, • le rapport entre fréquences rapides et fréquences lentes : alpha+ bêta/delta + thêta ( α+β/δ+ϑ [formula] )
La dernière ingestion a précédé de 1 heure la seconde administration de diazépam.
Le diazépam (ampoules injectables - Valium® 10 - Roche) a été administré par voie orale, en solution aqueuse, sous un volume de 10 ml/singe, à des doses comprises entre 0,5 mg.kg⁻¹ et 4 mg.kg⁻¹ (doses différentes du fait d'une sensibilité individuelle propre à chaque sujet).
100 (le seuil de probabilité statistique choisi peut paraître élevé ; il est en rapport avec le faible nombre de sujets : n=7). L'ensemble de l'analyse statistique a été obtenu grâce au programme statistique SPSS/PC⁺ (SPSS Inc., Chicago)

souris [2] = details: mouse; for nombre de redressements, Total (moyenne): 3 min in cylinder
From the text: Les scores d'activité sont fonction de la surface à explorer. Ils sont également fonction de deux motivations contradictoires : la curiosité et la crainte. Il faut enfin savoir que lorsque la surface offerte permet une activité "horizontale" (marche) la curiosité parait l'emporter; par contre lorsque la surface est réduite et conduit à une activité "verticale" (redressements le long des parois d'un cylindre) il semble que la crainte anxieuse soit davantage présente et conduise à une activité soit diminuée, soit cyclique, et apparemment sans focalisation.
(§1) Ces études ont été réalisées chez des souris mâles, de souche NMRI-Han, réparties au hasard en lots de 15 souris (séries traitées) et 20 souris (série contrôle).
Au sortir de l'actimètre, les souris sont placées dans un cylindre en verre (hauteur 30 cm, diamètre 9 cm) L'exploration anxiogène a été mesurée par le nombre de redressements au cours de la première minute passée dans le cylindre, l'activité basale anxiogène étant considérée dans la même enceinte, entre 1 et 3 minutes.
(§2) Les doses ont été calculées selon une progression géométrique de base 700 (correspondant au 1/10 de la DL 50) et de raison 2, soit respectivement 175, 350, 700 et 1400 mg.kg⁻¹.
(§3) Les traitements sont réalisés 60 minutes avant le test.
(§4) Il est identique à celui décrit dans l'exemple précédent.
(§5) Les doses ont été calculées selon une progression géométrique de base 700 (correspondant au 1/10 de la DL 50) et de raison 2, soit respectivement 10,95; 21,9; 43,8; 87,5; 175; 350; 700 mg/kg. […] Les derniers traitements ont été réalisés 60 minutes avant le test.

souris [3] = details: for Animaux tombés (%): controls 20,0
Method: Le test dit du "rota-rod" permet de juger le tonus musculaire et la coordination motrice de souris placées sur une tige tournant à vitesse constante.
as §1
La DA 50 s'exprime par la dose qui provoque en moins de 3 minutes la chute de 50 p. 100 des souris placées sur une tige en bois tournant à une vitesse de 16 tours/min (diamètre 1,7 cm). Ce test qui permet de juger de la coordination motrice des souris est adapté de la technique décrite par N.W. DUNHAN and T.S. MIYA (J. Am. Pharm. Assoc. 1957, 46 : 208)
as §2, §3, §4, §5

souris [4] = details: mouse; for animaux ne présentant pas de comportement anxiogène (miction, défécation): controls 20 %; for souris présentant une défécation et une miction émotionnelles: controls 85 p. 100
Method: as §1
Enfin, l'effet à l'égard des manifestations dites émotionnelles est mesuré sur la miction et la défécation au cours des 3 minutes passées dans le cylindre et permet le calcul d'une DA 50 dite "anti-émotionnelle".
as §2, §3, §4, §5

[5] = repeated daily dosing (13 days), 10.95 mg/kg P.O., last dose 60 min before test
[6] = repeated daily dosing (13 days), 21.9 mg/kg P.O., last dose 60 min before test
[7] = repeated daily dosing (13 days), 43.8 mg/kg P.O., last dose 60 min before test
[8] = repeated daily dosing (13 days), 87.5 mg/kg P.O., last dose 60 min before test
[9] = repeated daily dosing (13 days), 175 mg/kg P.O., last dose 60 min before test
[10] = repeated daily dosing (13 days), 350 mg/kg P.O., last dose 60 min before test
[11] = repeated daily dosing (13 days), 700 mg/kg P.O., last dose 60 min before test
[12] = single dose 175 mg.kg⁻¹ P.O., 60 min before test
[13] = single dose 350 mg.kg⁻¹ P.O., 60 min before test
[14] = single dose 700 mg.kg⁻¹ P.O., 60 min before test
[15] = single dose 1400 mg.kg⁻¹ P.O., 60 min before test

α-β-aspartate de magnésium
"SEF 95%" augmentée ([1]; 50 mg.kg⁻¹ orally twice daily for two weeks, before diazepam): 0,5 Hz | puissance relative de la bande β accrue ([1]; 50 mg.kg⁻¹ orally twice daily for two weeks, resting EEG, individual values of 4 of 7 subjects): 4,4% and 3,6% and 6,2% and 13% | ondes delta accrues ([1]; 50 mg.kg⁻¹ orally twice daily for two weeks, individual values among the 3 other monkeys): 5% and 8% | proportion relative de la bande β₂ ([1]; after two weeks of α-β-aspartate de magnésium, before diazepam, reference before any drug 20 %): 23% | nombre de redressements, 1ère minute (moyenne) (souris [2]; [5]): 16 | nombre de redressements, 2ème minute (moyenne) (souris [2]; [5]): 11 | nombre de redressements, 3ème minute (moyenne) (souris [2]; [5]): 8 | nombre de redressements, Total (moyenne) (souris [2]; [5]): 35 | nombre de redressements, 1ère minute (moyenne) (souris [2]; [6]): 14 | nombre de redressements, 2ème minute (moyenne) (souris [2]; [6]): 9 | nombre de redressements, 3ème minute (moyenne) (souris [2]; [6]): 6 | nombre de redressements, Total (moyenne) (souris [2]; [6]): 29 | nombre de redressements, 1ère minute (moyenne) (souris [2]; [7]): 13 | nombre de redressements, 2ème minute (moyenne) (souris [2]; [7]): 9 | nombre de redressements, 3ème minute (moyenne) (souris [2]; [7]): 8 | nombre de redressements, Total (moyenne) (souris [2]; [7]): 30 | nombre de redressements, 1ère minute (moyenne) (souris [2]; [8]): 13 | nombre de redressements, 2ème minute (moyenne) (souris [2]; [8]): 9 | nombre de redressements, 3ème minute (moyenne) (souris [2]; [8]): 8 | nombre de redressements, Total (moyenne) (souris [2]; [8]): 30 | nombre de redressements, 1ère minute (moyenne) (souris [2]; [9]): 12 | nombre de redressements, 2ème minute (moyenne) (souris [2]; [9]): 9 | nombre de redressements, 3ème minute (moyenne) (souris [2]; [9]): 8 | nombre de redressements, Total (moyenne) (souris [2]; [9]): 29 | nombre de redressements, 1ère minute (moyenne) (souris [2]; [10]): 13 | nombre de redressements, 2ème minute (moyenne) (souris [2]; [10]): 10 | nombre de redressements, 3ème minute (moyenne) (souris [2]; [10]): 8 | nombre de redressements, Total (moyenne) (souris [2]; [10]): 31 | nombre de redressements, 1ère minute (moyenne) (souris [2]; [11]): 14 | nombre de redressements, 2ème minute (moyenne) (souris [2]; [11]): 10 | nombre de redressements, 3ème minute (moyenne) (souris [2]; [11]): 9 | nombre de redressements, Total (moyenne) (souris [2]; [11]): 33 | nombre de redressements, 1ère minute (moyenne) (souris [2]; [12]): 14 | nombre de redressements, 2ème minute (moyenne) (souris [2]; [12]): 8 | nombre de redressements, 3ème minute (moyenne) (souris [2]; [12]): 7 | nombre de redressements, Total (moyenne) (souris [2]; [12]): 29 | nombre de redressements, 1ère minute (moyenne) (souris [2]; [13]): 15 | nombre de redressements, 2ème minute (moyenne) (souris [2]; [13]): 9 | nombre de redressements, 3ème minute (moyenne) (souris [2]; [13]): 6 | nombre de redressements, Total (moyenne) (souris [2]; [13]): 30 | nombre de redressements, 1ère minute (moyenne) (souris [2]; [14]): 15 | nombre de redressements, 2ème minute (moyenne) (souris [2]; [14]): augmente significativement | nombre de redressements, 3ème minute (moyenne) (souris [2]; [14]): 7 | nombre de redressements, Total (moyenne) (souris [2]; [14]): 32 | nombre de redressements, 2ème minute (moyenne) (souris [2]; single dose 700 mg.kg⁻¹ P.O., 60 min before test, listed as Mag): 10 | nombre de redressements, 1ère minute (moyenne) (souris [2]; [15]): 15 | nombre de redressements, 2ème minute (moyenne) (souris [2]; [15]): augmente significativement | nombre de redressements, 3ème minute (moyenne) (souris [2]; [15]): 8 | nombre de redressements, Total (moyenne) (souris [2]; [15]): 34 | nombre de redressements, 2ème minute (moyenne) (souris [2]; single dose 1400 mg.kg⁻¹ P.O., 60 min before test, listed as Mag): 11 | Animaux tombés (%) (souris [3]; mouse, 10,95 mg.kg⁻¹ P.O x13): 26,6% | Animaux tombés (%) (souris [3]; mouse, 21,9 mg.kg⁻¹ P.O x13): 33,3% | Animaux tombés (%) (souris [3]; mouse, 43,8 mg.kg⁻¹ P.O x13): 46,6% | Animaux tombés (%) (souris [3]; mouse, 67,5 mg.kg⁻¹ P.O x13): 33,3% | Animaux tombés (%) (souris [3]; mouse, 175,0 mg.kg⁻¹ P.O x13): 46,6% | Animaux tombés (%) (souris [3]; mouse, 350,0 mg.kg⁻¹ P.O x13): 33,3% | Animaux tombés (%) (souris [3]; mouse, 700,0 mg.kg⁻¹ P.O x13): 33,3% | souris qui chutent de la tige tournante au cours des 3 minutes (souris [3]; mouse, single dose 175 mg.kg⁻¹ P.O., controls 25 %): 13% | DA 50 (réduction du tonus musculaire, rota-rod) (souris [3]; mouse, single dose P.O., Litchfield-Wilcoxon, confidence limits (5 p. 100) 343 - 1091 mg.kg⁻¹): 612 mg/kg | DA 50 (enceinte anxiogène, sujets ne présentant pas de comportement anxieux) (souris [4]; repeated administration over 13 days P.O., limits 11,26 - 68,66 mg/kg): 27,8 mg/kg and 28 mg/kg and 27,81 mg/kg | animaux ne présentant pas de comportement anxiogène (miction, défécation) (souris [4]; repeated dosing (13 days), 175 mg/kg P.O.): 73,3% | animaux ne présentant pas de comportement anxiogène (miction, défécation) (souris [4]; repeated dosing (13 days), 350 mg/kg P.O.): 60% | animaux ne présentant pas de comportement anxiogène (miction, défécation) (souris [4]; repeated dosing (13 days), 700 mg/kg P.O.): 66,7% | animaux ne présentant pas de comportement anxiogène (miction, défécation) (souris [4]; repeated dosing (13 days), 10,95 mg/kg P.O.): 40% | animaux ne présentant pas de comportement anxiogène (miction, défécation) (souris [4]; repeated dosing (13 days), 21,9 mg/kg P.O.): 40% | animaux ne présentant pas de comportement anxiogène (miction, défécation) (souris [4]; repeated dosing (13 days), 43,8 mg/kg P.O.): 60% | animaux ne présentant pas de comportement anxiogène (miction, défécation) (souris [4]; repeated dosing (13 days), 87,5 mg/kg P.O.): 66,7% | souris présentant une défécation et une miction émotionnelles (souris [4]; single dose 175 mg.kg⁻¹ P.O.): 40% | souris présentant une défécation et une miction émotionnelles (souris [4]; single dose 350 mg.kg⁻¹ P.O.): 53% | souris présentant une défécation et une miction émotionnelles (souris [4]; single dose 700 mg.kg⁻¹ P.O.): 27% | souris présentant une défécation et une miction émotionnelles (souris [4]; single dose 1400 mg.kg⁻¹ P.O.): 73% | DA 50 "anti-émotionnelle" (souris [4]; single dose P.O., confidence limits (5 p. 100) 160 - 2082 mg.kg⁻¹): 577 mg/kg
